Measured values from article PMC9713482, “Discovery of (R)-2-amino-3-triazolpropanoic acid derivatives as NMDA receptor glycine site agonists with GluN2 subunit-specific activity” (Frontiers in Chemistry, 2022).

Legend:
Assay in all cases: cell-based
GluN1/2B [1] = molecular target: T1, GluN1/2B (Rattus norvegicus, UniProt P35439); parameters: species or system Xenopus laevis oocytes; two-electrode voltage-clamp recording of NMDA receptor agonist responses with 300 uM glutamate, relative to maximal glycine response; conditions: Oocyte; 300 uM glutamate; read-out: % activation
T1 construct: gene Grin1; full-length subunits co-expressed from cRNA (1:2) in Xenopus laevis oocytes; GluN2B ORF altered only silently; heterotetramer; with Glutamate receptor ionotropic, NMDA 2B
Procedure: (§1) Oocytes were injected with cRNAs for GluN1 and GluN2 subunits at a 1:2 ratio, and incubated as previously described ([Hansen et al., 2013]). The injected oocytes were used for two-electrode voltage-clamp recordings at room temperature (21–23°C) after 2–4 days of expression. as previously described ([Hansen et al., 2013]). The holding potential was −40 mV in all recordings. The recording solution was comprised of (in mM) 90 NaCl, 1 KCl, 10 HEPES, 0.5 BaCl2 and 0.01 EDTA (pH 7.4). For experiments with GluN1/2A or GluN1/2B receptors, the oocytes were injected at least 10 min before recordings with 50 mM BAPTA (30–50 nL) to minimize use-dependent increases in response amplitudes ([Williams, 1993]). Compounds were dissolved as 20–100 mM stock solutions in DMSO, and DMSO concentrations were constant in all recording solutions and never exceeded 1%. GraphPad Prism (GraphPad Software, La Jolla, CA) was used to analyze agonist concentration-response data. Briefly, the data for each oocyte were fitted to the following Hill equation, I = Rmax/(1 + 10^((logEC50-log [A])*nH)). […] The pharmacological properties of analogues 13a-j and 16 were determined with two-electrode voltage-clamp recordings of responses from recombinant NMDA receptor subtypes (Table 1; Figure 4). Compound 13f was identified as agonist with lower maximal response relative to glycine (Rmax) at GluN1/2A (47%) and GluN1/2B (23%), but Rmax similar to glycine at GluN1/2C (94%) and GluN1/2D (96%).

GluN1/2C [2] = molecular target: T2, GluN1/2C (Rattus norvegicus, UniProt P35439); parameters: species or system Xenopus laevis oocytes; two-electrode voltage-clamp recording of NMDA receptor agonist responses with 300 uM glutamate, relative to maximal glycine response; conditions: Oocyte; 300 uM glutamate; read-out: % activation
T2 construct: gene Grin1; full-length subunits co-expressed from cRNA (1:2) in Xenopus laevis oocytes; heterotetramer (human Q14957 was used only for modelling); with Glutamate receptor ionotropic, NMDA 2C
Procedure: as §1

GluN1/2D [3] = molecular target: T3, GluN1/2D (Rattus norvegicus, UniProt P35439); parameters: species or system Xenopus laevis oocytes; two-electrode voltage-clamp recording of NMDA receptor agonist responses with 300 uM glutamate, relative to maximal glycine response; conditions: Oocyte; 300 uM glutamate; read-out: % activation
T3 construct: gene Grin1; full-length subunits co-expressed from cRNA (1:2) in Xenopus laevis oocytes; heterotetramer; with Glutamate receptor ionotropic, NMDA 2D
Procedure: as §1

GluN1/2B [4] = molecular target: T1, GluN1/2B; parameters: species or system Xenopus laevis oocytes; Two-electrode voltage-clamp concentration-response of glycine-site agonists with saturating glutamate; efficacy relative to 100 uM glycine; conditions: Oocyte; fitted maximum relative to 100 uM glycine, saturating glutamate; read-out: Rel. efficacy (%) / 100 / 100.0775
Description: (§2) For expression in Xenopus laevis oocytes purchased from Rob Weymouth (Xenopus 1, Dexter, MI), cDNAs encoding rat NMDA receptor subunits, GluN1-1a (Genbank accession number U11418 and U08261), GluN2A (D13211), GluN2B (U11419), GluN2C (M91563), and GluN2D (L31611), were used to produce cRNAs using the mMessage mMachine kit (Ambion, Life Technologies, Paisley, United Kingdom) according to the manufacturer’s protocol. The open reading frame of the GluN2B subunit was altered without changing the amino acid sequence to remove a termination site for the T7 RNA polymerase used to synthesize cRNA ([Hansen et al., 2014]). Oocytes were injected with cRNAs for GluN1 and GluN2 subunits at a 1:2 ratio, and incubated as previously described ([Hansen et al., 2013]). The injected oocytes were used for two-electrode […] recordings at room temperature (21–23°C) after 2–4 days of expression. as previously described ([Hansen et al., 2013]). The holding potential was −40 mV in all recordings. The recording solution was comprised of (in mM) 90 NaCl, 1 KCl, 10 HEPES, 0.5 BaCl2 and 0.01 EDTA (pH 7.4). For experiments with GluN1/2A or GluN1/2B receptors, the oocytes were injected at least 10 min before recordings with 50 mM BAPTA (30–50 nL) to minimize use-dependent increases in response amplitudes ([Williams, 1993]). Compounds were dissolved as 20–100 mM stock solutions in DMSO, and DMSO concentrations were constant in all recording solutions and never exceeded 1%. GraphPad Prism (GraphPad Software, La Jolla, CA) was used to analyze agonist concentration-response data. Briefly, the data for each oocyte were fitted to the following Hill equation, I = Rmax/(1 + 10^((logEC50-log [A])*nH)).

GluN1/2A = molecular target: T4, GluN1/2A (Rattus norvegicus, UniProt P35439); parameters: species or system Xenopus laevis oocytes; Two-electrode voltage-clamp concentration-response of glycine-site agonists with saturating glutamate; efficacy relative to 100 uM glycine; conditions: Oocyte; fitted maximum relative to 100 uM glycine, saturating glutamate; read-out: Rel. efficacy (%) / 99.6672727273 / 96.0542857143
T4 construct: gene Grin1; full-length subunits co-expressed from cRNA (GluN1:GluN2 1:2) in Xenopus laevis oocytes; heterotetramer; glycine site in GluN1; with Glutamate receptor ionotropic, NMDA 2A
Description: as §2

GluN1/2C [5] = molecular target: T2, GluN1/2C; parameters: species or system Xenopus laevis oocytes; Two-electrode voltage-clamp concentration-response of glycine-site agonists with saturating glutamate; efficacy relative to 100 uM glycine; conditions: Oocyte; fitted maximum relative to 100 uM glycine, saturating glutamate; read-out: Rel. efficacy (%) / 100 / 111.08
Description: as §2

GluN1/2D [6] = molecular target: T3, GluN1/2D; parameters: species or system Xenopus laevis oocytes; Two-electrode voltage-clamp concentration-response of glycine-site agonists with saturating glutamate; efficacy relative to 100 uM glycine; conditions: Oocyte; fitted maximum relative to 100 uM glycine, saturating glutamate; read-out: Rel. efficacy (%) / 100 / 92.671
Description: as §2

SMILES: N[C@H](Cn1cc(CCO)nn1)C(=O)O [13a, (R)-2-Amino-3-(4-(2-hydroxyethyl)-1H-1,2,3-triazol-1-yl)propanoic acid]
- activity at 100 µM (GluN1/2B [1]): 6.2%
- activity at 100 µM (GluN1/2C [2]): 22%
- activity at 100 µM (GluN1/2D [3]): 34%

SMILES: Nc1ccc(-c2cn(C[C@@H](N)C(=O)O)nn2)cc1 [13f, (R)-2-Amino-3-(4-(4-aminophenyl)-1H-1,2,3-triazol-1-yl)propanoic acid]
- Emax (GluN1/2B [4]): 22.8%
- Emax (GluN1/2A): 47.3%
- Emax (GluN1/2C [5]): 93.9%
- Emax (GluN1/2D [6]): 96.5%

SMILES: N[C@H](Cn1cc(Cc2ccccc2)nn1)C(=O)O [13c, (R)-2-Amino-3-(4-benzyl-1H-1,2,3-triazol-1-yl)propanoic acid]
- activity at 100 µM (GluN1/2C [2]): 12%
- activity at 100 µM (GluN1/2D [3]): 5.9%

SMILES: CCCCc1cn(C[C@@H](N)C(=O)O)nn1 [13b, (R)-2-Amino-3-(4-butyl-1H-1,2,3-triazol-1-yl)propanoic acid]
- activity at 100 µM (GluN1/2B [1]): 9.2%
- activity at 100 µM (GluN1/2C [2]): 27%
- activity at 100 µM (GluN1/2D [3]): 32%

SMILES: N[C@H](Cn1cc(-c2ccsc2)nn1)C(=O)O [13i, (R)-2-Amino-3-(4-(thiophen-3-yl)-1H-1,2,3-triazol-1-yl)propanoic acid]
- Emax (GluN1/2B [4]): 46.3%
- Emax (GluN1/2A): 56.4%
- Emax (GluN1/2C [5]): 81.9%
- Emax (GluN1/2D [6]): 81.8%

SMILES: N[C@H](Cn1cc(-c2cccnc2)nn1)C(=O)O [13g, (R)-2-Amino-3-(4-(pyridin-3-yl)-1H-1,2,3-triazol-1-yl)propanoic acid]
- Emax (GluN1/2B [4]): 55.7%
- Emax (GluN1/2A): 65.5%
- Emax (GluN1/2C [5]): 96.9%
- Emax (GluN1/2D [6]): 87.5%
